Measured values from the NIST ThermoML archive (doi:10.1016/j.jct.2012.03.027).

How the values were obtained:
[1] = for vapor or sublimation pressure: Closed cell (Static) method; for Triple point temperature: DTA
[2] = Molar enthalpy of transition or fusion; settings: Crystal; DSC
[3] = molar heat capacity at constant pressure; settings: 298.15 K, 101.33 kPa, Drop calorimetry

OCC(F)(F)C(F)(F)C(F)(F)C(F)(F)C(F)(F)C(F)(F)C(F)(F)C(F)(F)F [2,2,3,3,4,4,5,5,6,6,7,7,8,8,9,9,9-heptadecafluoro-1-nonanol]
[1]
Settings	vapor or sublimation pressure [kPa]
275.71 K, Crystal	0.00048
278.17 K, Crystal	0.00067
283.16 K, Crystal	0.00128
288.15 K, Crystal	0.0025
293.14 K, Crystal	0.00477
298.11 K, Crystal	0.00866
303.13 K, Crystal	0.01568
308.1 K, Crystal	0.02727
313.09 K, Crystal	0.04767
318.06 K, Crystal	0.07933
323.03 K, Crystal	0.13
342.99 K, Liquid	0.8017
344 K, Liquid	0.8571
345.48 K, Liquid	0.9447
347.97 K, Liquid	1.11
350.45 K, Liquid	1.3
351.45 K, Liquid	1.383

Settings	Triple point temperature [K]
[1], Crystal	342.2

Settings	Molar enthalpy of transition or fusion [kcal/mol]
[2]	3.97

OCC(F)(F)C(F)(F)C(F)(F)C(F)(F)C(F)(F)C(F)(F)C(F)(F)C(F)(F)C(F)(F)C(F)(F)F [1H,1H-perfluoroundecan-1-ol]
[1], Crystal
Settings	vapor or sublimation pressure [kPa]
310.53 K	0.00219
313.02 K	0.00299
315.51 K	0.00402
318 K	0.00537
320.48 K	0.00715
323 K	0.00968
325.47 K	0.01321
327.95 K	0.01724
330.42 K	0.02207
332.87 K	0.02909
335.42 K	0.03815
337.85 K	0.04977
340.35 K	0.06415
342.81 K	0.08275
345.3 K	0.1064
347.8 K	0.1361

Settings	Triple point temperature [K]
[1], Crystal	374

Settings	Molar enthalpy of transition or fusion [kcal/mol]
[2]	5.35

OCC(F)(F)C(F)(F)C(F)(F)C(F)(F)C(F)(F)C(F)(F)C(F)(F)C(F)(F)C(F)(F)F [1H,1H-perfluoro-1-decanol]
[1], Crystal
Settings	vapor or sublimation pressure [kPa]
303.92 K	0.00452
308 K	0.00755
312.98 K	0.01315
318.07 K	0.02289
323.07 K	0.03765
327.88 K	0.06457
332.84 K	0.1045
337.79 K	0.1714
342.75 K	0.2677
347.71 K	0.414
352.65 K	0.6247
355.65 K	0.8008
358.15 K	0.97

Settings	Triple point temperature [K]
[1], Crystal	358.5

Settings	Molar enthalpy of transition or fusion [kcal/mol]
[2]	3.8

OCC(F)(F)C(F)(F)C(F)(F)C(F)(F)C(F)(F)C(F)(F)C(F)(F)F [2,2,3,3,4,4,5,5,6,6,7,7,8,8,8-pentadecafluoro-1-octanol]
[1]
Settings	vapor or sublimation pressure [kPa]
268.27 K, Crystal	0.00104
273.24 K, Crystal	0.00201
278.21 K, Crystal	0.00388
283.17 K, Crystal	0.00714
288.15 K, Crystal	0.01272
293.15 K, Crystal	0.02273
295.64 K, Crystal	0.03033
298.14 K, Crystal	0.03911
300.61 K, Crystal	0.05177
303.13 K, Crystal	0.06648
305.62 K, Crystal	0.08724
308.1 K, Crystal	0.1113
310.56 K, Crystal	0.1412
313.08 K, Crystal	0.1815
315.52 K, Crystal	0.2288
318.05 K, Crystal	0.2936
320.52 K, Liquid	0.3615
323.01 K, Liquid	0.4351
325.52 K, Liquid	0.524
328.01 K, Liquid	0.6236
330.49 K, Liquid	0.7457
332.97 K, Liquid	0.871
335.47 K, Liquid	1.048
337.97 K, Liquid	1.233
339.44 K, Liquid	1.359

Crystal
Settings	Triple point temperature [K]	molar heat capacity at constant pressure [J/K/mol]
[1]	318.2	–
[3]	–	468.6

Settings	Molar enthalpy of transition or fusion [kcal/mol]
[2]	2.84

OCC(F)(F)C(F)(F)C(F)(F)C(F)(F)C(F)(F)C(F)(F)F [2,2,3,3,4,4,5,5,6,6,7,7,7-tridecafluoro-1-heptanol]
[1], Liquid
Settings	vapor or sublimation pressure [kPa]
275.55 K	0.01786
278.02 K	0.02308
280.53 K	0.03001
282.99 K	0.03804
285.49 K	0.04858
287.97 K	0.06227
290.46 K	0.07837
292.95 K	0.09912
295.45 K	0.1247
297.97 K	0.1587
300.43 K	0.1946
302.94 K	0.2431
305.4 K	0.294
307.91 K	0.3632
310.39 K	0.4344
312.88 K	0.5339
315.35 K	0.6248
317.87 K	0.7553

Settings	molar heat capacity at constant pressure [J/K/mol]
[3], Liquid	476.8
